According to patent publication US8298766B2, “Fluorescent dyes, methods of synthesis and applications thereof” (priority 2010, dated 2012):

Experiments:
[1] = system: calf thymus DNA; experiment: Fluorescence emission spectra in the absence and presence of calf thymus DNA in buffer solution; assay type: binding; settings: dye 1 μM, calf thymus DNA 100 μM
Procedure: FIG. 1 is the comparison of fluorescence emission spectra of compound A with commercially available dye EB in the absence and presence of calf thymus DNA respectively in pH 7.36, 10 mM Tris-HCl buffer. The abscissa is wavelength (nm) and the ordinate is the relative fluorescence intensity. The equipments used are a UV-Vis spectrophotometer (Hp8453) and a spectrofluorophotometer (FP-6500). The concentrations of compound A, EB and calf thymus DNA are 1 μM, 1 μM and 100 μM respectively.
FIG. 2 is the comparison of fluorescence emission spectra of compound B with commercially available dye EB in the absence and presence of calf thymus DNA respectively in pH 7.4, 10 mM Tris-HCl buffer. The abscissa is wavelength (nm) and the ordinate is the relative fluorescence intensity. The equipments used are a UV-Vis spectrophotometer (Hp8453) and a spectrofluorophotometer (FP-6500). The concentrations of compound B, EB and calf thymus DNA are 1 μM, 1 μM and 100 μM, respectively.
FIG. 3 is the comparison of fluorescence emission spectra of compound C with commercially available dye EB in the absence and presence of calf thymus DNA respectively in pH 7.24, 10 mM Tris-HCl buffer. The abscissa is wavelength (nm) and the ordinate is the relative fluorescence intensity. […]
Determinations of the fluorescence emission spectra of compound A and commercially available dye EB in the absence and presence of calf thymus DNA respectively in buffer solution
Solutions of compound A in DMSO and EB in water are separately prepared with the concentrations of 1 mM. 3 μL of each solution is diluted with 10 mM Tris-HCl buffer solution (pH 7.36) to 3 mL in a cuvette to determine its fluorescence intensity. Solution of calf thymus DNA in water is prepared, whose concentration is determined as 1.5 mM by the adsorption at 260 nm in spectrophotometry (using the molar absorption coefficients of ε260 nm=6600 M^−1 cm^−1). […]
Determinations of the fluorescence emission spectra of compound B and commercially available dye EB in the absence and presence of calf thymus DNA respectively in buffer solution […]

[2] = system: live MCF-7 cells (human breast cancer cells); experiment: Imaging of live MCF-7 cells stained with compound by confocal laser scanning microscopy; assay type: cell-based; settings: 30 min at 37° C., excitation Cy5 channel (633 nm)
Procedure: FIG. 6A is the white light image of live MCF-7 cells (human breast cancer cells) stained with compound A, 6B is the fluorescence image of live MCF-7 cells stained with compound A. The concentration of compound A is 2 μM. The equipment used is a confocal laser scanning microscope (TCS-SP2). Excitation channel: Cy5 (633 nm).
FIG. 7A is the white light image of live MCF-7 cells (human breast cancer cells) stained with compound D, 7B is the fluorescence image of live MCF-7 cells stained with compound D. The concentration of compound D is 1.5 μM. The equipment used is a confocal laser scanning microscope (TCS-SP2). Excitation channel: Cy5 (633 nm).
FIG. 8A is the white light image of live MCF-7 cells (human breast cancer cells) stained with compound E, and 8B is the fluorescence image of live MCF-7 cells stained with compound E. The concentration of compound E is 3 μM. The equipment used is a confocal laser scanning microscope (TCS-SP2). Excitation channel: Cy5 (633 nm).
The equipment used is a confocal laser scanning microscope (TCS-SP2). Excitation channel: Cy5 (633 nm).
(§1) MCF-7 cells are cultured in DEME (Invitrogen) supplemented with 10% FBS (Invitrogen). One day before imaging, cells are seeded in 24-well flat-bottomed plates. The next day, the live cells were incubated with 2 μM of compound A for 30 min at 37° C. under 5% CO2 and then washed with phosphate-buffered saline (PBS) three times, and then the fluorescence imaging was observed under confocal laser scanning microscopy with a 100× objective lens (excited with Cy5 channel). 1000× magnification was utilized in the imaging. The scale bar represents 20 μm. […] The equipment used is a confocal laser scanning microscope (TCS-SP2). Excitation channel: Cy5 (633 nm). The concentration of compound A is 2 μM.
as §1, with “with 1.5” for “with 2”, “compound D” for “compound A”, “(TCS-SP2). […]” for “(TCS-SP2). Excitation channel: Cy5 (633 nm). The concentration of compound A is 2 μM.”
MCF-7 cells are cultured in DEME (Invitrogen) supplemented with 10% FBS (Invitrogen). […] The next day, the live cells were incubated with 3 μM of compound E for 30 min at 37° C. under 5% CO2 and then washed with phosphate-buffered saline (PBS) three times, and then the fluorescence imaging was observed under confocal laser scanning microscopy with a 100× objective lens (excited with Cy5 channel). […]

[3] = system: calf thymus DNA; experiment: Fluorescence intensity before and after addition of calf thymus DNA; assay type: binding; settings: pH 7.0, 10 mM Tris-HCl buffer; dye 1 μM; calf thymus DNA 40 μg/mL
Procedure: (§2) The ordinate is the fluorescence increasing fold. The equipment used is a spectrofluorophotometer (FP-6500). […] The concentrations of calf thymus DNA and bovine serum albumin are both 40 μg/mL.
(§3) Finally each mixture of dye and BSA solution is diluted with pH 7.0, 10 mM Tris-HCl buffer solution to 3 mL and the fluorescence emission spectra are determined respectively after stabilization. […] Finally each mixture of dye and calf thymus DNA solution is diluted with pH 7.0, 10 mM Tris-HCl buffer solution to 3 mL and the fluorescence emission spectra are determined respectively after stabilization. […] The equipment used is a spectrofluorophotometer (FP-6500).

[4] = target: bovine serum albumin (Bos taurus, UniProt P02769); experiment: Fluorescence intensity before and after addition of bovine serum albumin; assay type: binding; settings: pH 7.0, 10 mM Tris-HCl buffer; dye 1 μM; bovine serum albumin 40 μg/mL
Chain of bovine serum albumin (P02769 25-607): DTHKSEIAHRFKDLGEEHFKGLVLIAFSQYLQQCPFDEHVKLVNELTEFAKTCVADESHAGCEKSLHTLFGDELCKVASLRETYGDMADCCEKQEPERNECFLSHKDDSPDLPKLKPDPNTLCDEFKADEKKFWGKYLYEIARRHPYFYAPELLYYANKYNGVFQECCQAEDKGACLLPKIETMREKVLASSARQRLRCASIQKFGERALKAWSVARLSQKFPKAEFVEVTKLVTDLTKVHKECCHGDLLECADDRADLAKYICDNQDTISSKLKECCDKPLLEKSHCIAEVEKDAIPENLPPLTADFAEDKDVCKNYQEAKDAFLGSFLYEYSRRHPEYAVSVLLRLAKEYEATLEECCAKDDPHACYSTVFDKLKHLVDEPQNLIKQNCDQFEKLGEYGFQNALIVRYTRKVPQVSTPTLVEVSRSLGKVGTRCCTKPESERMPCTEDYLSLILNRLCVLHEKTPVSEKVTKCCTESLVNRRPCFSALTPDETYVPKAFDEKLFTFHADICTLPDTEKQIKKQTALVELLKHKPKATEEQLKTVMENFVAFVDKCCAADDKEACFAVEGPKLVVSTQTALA
Procedure: as §2, §3

## COc1ccc2c(c1)oc(/C=C/C=C1\C=CN(CCCN3CCCCC3)c3ccccc31)[n+]2CCCN1CCCCC1.[Br-] [compound B]
[1]; pH 7.4, 10 mM Tris-HCl buffer
  fluorescence increase upon binding to calf thymus DNA (I/I0): 89 fold

## NCCNCCC[n+]1c(/C=C/C=C2\C=CN(CCO)c3ccccc32)sc2ccccc21 [compound C]
[1]; pH 7.24, 10 mM Tris-HCl buffer
  fluorescence increase upon binding to calf thymus DNA (I/I0): 75 fold

## CC1(C)C(/C=C/C=C2\C=CN(Cc3ccccc3)c3ccccc32)=[N+](CCCNc2ccccc2)c2ccc(Cl)cc21.[Br-] [compound D]
[2]; 1.5 μM
  staining pattern of live MCF-7 cells (fluorescence image): nucleus selective staining

## CCN(CC)CCCC[n+]1c(/C=C/C=C2\C=CN(CC)c3ccccc32)sc2ccccc21.[I-] [compound A]
[1]; pH 7.36, 10 mM Tris-HCl buffer
  fluorescence increase upon binding to calf thymus DNA (I/I0): 55 fold
[3]
  fluorescence intensity increase upon binding to calf thymus DNA: 45.5 fold
[4]
  fluorescence intensity increase with BSA solution: 1.4 fold
[2]; 2 μM
  staining pattern of live MCF-7 cells (fluorescence image): nucleus selective staining

## CCN1C=C/C(=C\C=C\c2sc3ccccc3[n+]2CC)c2ccccc21 [M1, reference compound]
[3]
  fluorescence intensity increase upon binding to calf thymus DNA: 40 fold
[2]; 2 μM
  staining pattern of live MCF-7 cells (fluorescence image): simultaneously nucleus and cytoplasm staining

## CCCNCC[n+]1c(/C=C/C=C2\C=CN(CCCl)c3cc(C)ccc32)[se]c2ccccc21.[Br-] [compound E]
[2]; 3 μM
  staining pattern of live MCF-7 cells (fluorescence image): nucleus selective staining
